From patent publication US10344060B2 (priority 2013, dated 2019)

Tests used:
hNav1.7 = hNav1.7 (Homo sapiens, UniProt Q15858); assay: cell-based; type: cell-based; conditions: Table 12; PatchXpress, tonic block; read-out: PX hNav1.7 Tonic IC50
hNav1.4 = hNav1.4 (Homo sapiens, UniProt P35499); assay: cell-based; type: cell-based; conditions: Table 12; for IC50: PatchXpress, tonic block, read-out: PX hNav1.4 Tonic IC50; for Nav1.4/Nav1.7: ratio of PX tonic IC50 values
Sequence of hNav1.4 (P35499 whole entry): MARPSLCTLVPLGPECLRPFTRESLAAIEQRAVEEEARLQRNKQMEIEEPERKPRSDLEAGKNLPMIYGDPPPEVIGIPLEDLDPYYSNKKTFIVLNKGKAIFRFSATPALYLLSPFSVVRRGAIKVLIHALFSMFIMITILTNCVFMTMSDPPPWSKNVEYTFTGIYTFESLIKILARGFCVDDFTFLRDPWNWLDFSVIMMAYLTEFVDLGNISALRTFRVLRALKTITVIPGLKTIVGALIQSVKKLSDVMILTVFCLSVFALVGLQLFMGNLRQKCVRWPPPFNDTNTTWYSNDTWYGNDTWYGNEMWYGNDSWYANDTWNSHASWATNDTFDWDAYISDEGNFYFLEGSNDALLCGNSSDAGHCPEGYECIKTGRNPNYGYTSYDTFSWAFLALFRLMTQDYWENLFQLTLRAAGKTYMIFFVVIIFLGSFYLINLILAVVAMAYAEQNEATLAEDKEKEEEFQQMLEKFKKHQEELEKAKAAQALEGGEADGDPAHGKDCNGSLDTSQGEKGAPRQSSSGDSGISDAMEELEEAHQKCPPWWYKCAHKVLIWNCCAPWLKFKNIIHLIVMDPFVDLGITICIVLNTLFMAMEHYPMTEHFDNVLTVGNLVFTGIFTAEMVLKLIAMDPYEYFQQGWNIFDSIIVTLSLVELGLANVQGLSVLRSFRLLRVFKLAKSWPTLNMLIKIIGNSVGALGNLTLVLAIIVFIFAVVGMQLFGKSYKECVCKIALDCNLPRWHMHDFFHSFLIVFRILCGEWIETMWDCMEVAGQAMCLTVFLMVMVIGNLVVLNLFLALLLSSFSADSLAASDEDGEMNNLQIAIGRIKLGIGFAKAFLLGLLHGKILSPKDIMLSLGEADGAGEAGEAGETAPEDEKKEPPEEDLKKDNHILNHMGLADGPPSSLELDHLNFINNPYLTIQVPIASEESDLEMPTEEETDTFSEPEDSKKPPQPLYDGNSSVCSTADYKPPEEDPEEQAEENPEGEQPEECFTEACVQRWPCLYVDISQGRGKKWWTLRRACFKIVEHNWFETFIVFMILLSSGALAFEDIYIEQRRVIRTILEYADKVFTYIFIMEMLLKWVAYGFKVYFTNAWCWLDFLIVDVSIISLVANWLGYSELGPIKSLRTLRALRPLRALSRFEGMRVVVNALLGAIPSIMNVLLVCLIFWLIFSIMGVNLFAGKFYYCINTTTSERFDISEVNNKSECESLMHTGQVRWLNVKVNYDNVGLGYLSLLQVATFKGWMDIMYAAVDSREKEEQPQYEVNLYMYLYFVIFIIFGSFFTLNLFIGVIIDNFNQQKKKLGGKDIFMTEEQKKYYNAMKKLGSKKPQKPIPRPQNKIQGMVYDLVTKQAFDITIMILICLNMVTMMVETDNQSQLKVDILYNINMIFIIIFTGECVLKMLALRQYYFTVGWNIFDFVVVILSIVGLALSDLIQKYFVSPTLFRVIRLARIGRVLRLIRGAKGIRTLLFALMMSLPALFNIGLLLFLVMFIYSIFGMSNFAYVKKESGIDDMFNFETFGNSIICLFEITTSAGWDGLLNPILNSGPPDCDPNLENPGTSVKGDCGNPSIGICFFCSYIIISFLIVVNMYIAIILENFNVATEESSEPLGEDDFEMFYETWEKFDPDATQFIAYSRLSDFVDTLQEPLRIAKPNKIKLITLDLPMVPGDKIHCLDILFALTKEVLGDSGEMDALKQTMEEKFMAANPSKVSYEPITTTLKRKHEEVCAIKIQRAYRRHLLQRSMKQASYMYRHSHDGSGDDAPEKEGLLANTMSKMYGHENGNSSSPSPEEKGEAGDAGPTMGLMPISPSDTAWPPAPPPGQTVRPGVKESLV

Sequence of hNav1.7 (Q15858 whole entry): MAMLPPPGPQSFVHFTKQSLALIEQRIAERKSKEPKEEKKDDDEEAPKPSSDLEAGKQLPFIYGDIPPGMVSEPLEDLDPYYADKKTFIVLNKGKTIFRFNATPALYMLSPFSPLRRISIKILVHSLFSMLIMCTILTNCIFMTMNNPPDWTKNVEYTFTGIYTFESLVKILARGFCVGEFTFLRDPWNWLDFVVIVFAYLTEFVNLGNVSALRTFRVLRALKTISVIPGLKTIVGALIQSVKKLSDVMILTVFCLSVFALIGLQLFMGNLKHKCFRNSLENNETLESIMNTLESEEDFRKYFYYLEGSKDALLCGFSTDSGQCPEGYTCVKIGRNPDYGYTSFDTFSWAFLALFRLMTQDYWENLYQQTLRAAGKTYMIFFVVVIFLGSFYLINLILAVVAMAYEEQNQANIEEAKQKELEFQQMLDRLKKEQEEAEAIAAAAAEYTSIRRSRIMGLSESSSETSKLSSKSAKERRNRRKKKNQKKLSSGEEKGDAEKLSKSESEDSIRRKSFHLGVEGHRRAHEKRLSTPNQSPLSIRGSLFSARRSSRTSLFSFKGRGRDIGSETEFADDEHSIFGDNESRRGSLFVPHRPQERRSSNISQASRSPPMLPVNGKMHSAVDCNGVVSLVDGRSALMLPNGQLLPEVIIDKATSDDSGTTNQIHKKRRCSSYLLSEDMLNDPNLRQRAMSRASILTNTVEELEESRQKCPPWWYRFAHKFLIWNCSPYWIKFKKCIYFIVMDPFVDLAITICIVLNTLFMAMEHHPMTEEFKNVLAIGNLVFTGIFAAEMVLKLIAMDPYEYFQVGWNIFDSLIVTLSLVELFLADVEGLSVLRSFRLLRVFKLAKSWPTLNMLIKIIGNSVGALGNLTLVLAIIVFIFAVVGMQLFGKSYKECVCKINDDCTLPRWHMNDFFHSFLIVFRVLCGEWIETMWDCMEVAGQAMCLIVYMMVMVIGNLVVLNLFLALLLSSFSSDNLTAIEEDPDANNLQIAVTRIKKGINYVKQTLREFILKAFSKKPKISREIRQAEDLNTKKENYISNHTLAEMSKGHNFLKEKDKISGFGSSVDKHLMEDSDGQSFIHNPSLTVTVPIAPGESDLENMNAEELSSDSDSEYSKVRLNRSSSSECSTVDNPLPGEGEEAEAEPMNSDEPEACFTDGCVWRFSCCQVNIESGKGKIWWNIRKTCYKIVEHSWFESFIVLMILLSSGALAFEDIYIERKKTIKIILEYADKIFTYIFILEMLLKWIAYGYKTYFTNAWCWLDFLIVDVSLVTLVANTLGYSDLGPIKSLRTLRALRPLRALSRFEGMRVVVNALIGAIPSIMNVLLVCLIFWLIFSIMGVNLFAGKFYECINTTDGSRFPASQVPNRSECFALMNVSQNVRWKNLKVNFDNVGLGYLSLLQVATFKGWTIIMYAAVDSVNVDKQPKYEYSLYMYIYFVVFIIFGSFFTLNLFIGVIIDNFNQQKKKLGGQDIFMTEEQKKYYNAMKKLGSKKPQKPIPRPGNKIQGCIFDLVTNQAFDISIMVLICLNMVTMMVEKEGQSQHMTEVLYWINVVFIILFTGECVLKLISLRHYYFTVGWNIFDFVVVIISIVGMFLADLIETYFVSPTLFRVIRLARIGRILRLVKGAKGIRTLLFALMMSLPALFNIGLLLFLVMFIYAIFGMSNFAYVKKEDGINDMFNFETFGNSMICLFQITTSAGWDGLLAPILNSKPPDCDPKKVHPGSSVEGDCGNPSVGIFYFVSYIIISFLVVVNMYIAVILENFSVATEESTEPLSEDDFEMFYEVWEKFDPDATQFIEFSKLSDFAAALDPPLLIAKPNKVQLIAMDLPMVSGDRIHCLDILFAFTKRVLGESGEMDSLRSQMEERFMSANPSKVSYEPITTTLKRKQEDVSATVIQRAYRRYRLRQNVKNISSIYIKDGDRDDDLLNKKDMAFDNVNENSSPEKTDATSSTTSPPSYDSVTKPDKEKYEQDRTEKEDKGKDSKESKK

Structure (SMILES): C#CC[C@H](N)C(=O)N[C@@H](Cc1ccc(O)cc1)C(=O)N[C@H]1CSSC[C@@H]2NC(=O)[C@@H]3CSSC[C@@H](C(=O)N[C@@H](CCCNC(=N)N)C(=O)N[C@@H](CCCCN)C(=O)N4CCC[C@H]4C(=O)N[C@H](C(N)=O)[C@@H](C)CC)NC(=O)[C@H](Cc4c[nH]c5ccccc45)NC(=O)[C@H](CC(C)C)NC(=O)[C@H](CCCCN)NC(=O)[C@H](CSSC[C@H](NC(=O)[C@H]([C@@H](C)O)NC(=O)[C@H](Cc4c[nH]c5ccccc45)NC(=O)[C@H](CCCC)NC(=O)[C@H](Cc4c[nH]c5ccccc45)NC(=O)[C@H](CCCCN)NC(=O)[C@H](CCC(N)=O)NC1=O)C(=O)N[C@@H](CC(=O)O)C(=O)N[C@@H](CO)C(=O)N[C@@H](CCCCN)C(=O)N[C@@H](CCCNC(=N)N)C(=O)N[C@@H](C)C(=O)N3)NC(=O)[C@H](CCCNC(=N)N)NC(=O)[C@H](CC(C)C)NC(=O)CNC(=O)[C@H](CCC(=O)O)NC2=O [compound 657]
- IC50 (hNav1.7): 1.97 nM
- IC50 (hNav1.4): 206 nM
- Nav1.4/Nav1.7 (hNav1.4): 105

Structure (SMILES): C#CC[C@@H]1NC(=O)[C@@H]2CSSC[C@H](NC(=O)[C@H](Cc3ccc(O)cc3)NC(=O)[C@@H](N)CC#N)C(=O)N[C@@H](CCC(N)=O)C(=O)N[C@@H](CCCCN)C(=O)N[C@@H](Cc3c[nH]c4ccccc34)C(=O)N[C@@H](CCCC)C(=O)N[C@@H](Cc3c[nH]c4ccccc34)C(=O)N[C@@H]([C@@H](C)O)C(=O)N[C@H]3CSSC[C@H](NC(=O)[C@H](CCCNC(=N)N)NC(=O)[C@H](CC(C)C)NC(=O)CNC1=O)C(=O)N[C@@H](CCCCN)C(=O)N[C@@H](CC(C)C)C(=O)N[C@@H](Cc1c[nH]c4ccc(C)cc14)C(=O)N[C@H](C(=O)N[C@@H](CCCNC(=N)N)C(=O)N[C@@H](CCCCN)C(=O)N[C@@H](CCC(=O)O)C(=O)N[C@H](C(N)=O)[C@@H](C)CC)CSSC[C@H](NC(=O)[C@H](C)NC(=O)[C@H](CCCNC(=N)N)NC(=O)[C@H](CCCCN)NC(=O)[C@H](CO)NC(=O)[C@H](CC(=O)O)NC3=O)C(=O)N2 [compound 1662]
- IC50 (hNav1.7): 0.52 nM
- IC50 (hNav1.4): 89.8 nM
- Nav1.4/Nav1.7 (hNav1.4): 172

Structure (SMILES): C#CC[C@H](N)C(=O)N[C@@H](Cc1ccc(O)cc1)C(=O)N[C@H]1CSSC[C@@H]2NC(=O)[C@@H]3CSSC[C@@H](C(=O)N[C@@H](CCCNC(=N)N)C(=O)N[C@@H](CCCCN)C(=O)N[C@H](C(=O)N[C@H](C(N)=O)[C@@H](C)CC)[C@@H](C)CC)NC(=O)[C@H](Cc4c[nH]c5ccccc45)NC(=O)[C@H](CC(C)C)NC(=O)[C@H](CCCCN)NC(=O)[C@H](CSSC[C@H](NC(=O)[C@H]([C@@H](C)O)NC(=O)[C@H](Cc4c[nH]c5ccccc45)NC(=O)[C@H](CCCC)NC(=O)[C@H](Cc4c[nH]c5ccccc45)NC(=O)[C@H](CCCCN)NC(=O)[C@H](CCC(N)=O)NC1=O)C(=O)N[C@@H](CC(=O)O)C(=O)N[C@@H](CO)C(=O)N[C@@H](CCC(=O)O)C(=O)N[C@@H](CCCNC(=N)N)C(=O)N[C@@H](C)C(=O)N3)NC(=O)[C@H](CCCNC(=N)N)NC(=O)[C@H](CC(C)C)NC(=O)CNC(=O)[C@H](CCCCN)NC2=O [compound 729]
- IC50 (hNav1.7): 1.87 nM
- IC50 (hNav1.4): 7.6 nM
- Nav1.4/Nav1.7 (hNav1.4): 4

Structure (SMILES): C#CC[C@H](N)C(=O)N[C@@H](Cc1ccc(O)cc1)C(=O)N[C@H]1CSSC[C@@H]2NC(=O)[C@@H]3CSSC[C@@H](C(=O)N[C@@H](CCCNC(=N)N)C(=O)N[C@@H](CCCCN)C(=O)N[C@@H](CCC(=O)O)C(=O)N[C@H](C(N)=O)[C@@H](C)CC)NC(=O)[C@H](Cc4c[nH]c5ccccc45)NC(=O)[C@H](C4CCCCC4)NC(=O)[C@H](CCCCN)NC(=O)[C@H](CSSC[C@H](NC(=O)[C@H]([C@@H](C)O)NC(=O)[C@H](Cc4c[nH]c5ccccc45)NC(=O)[C@H](CCCC)NC(=O)[C@H](Cc4c[nH]c5ccccc45)NC(=O)[C@H](CCCCN)NC(=O)[C@H](CCC(N)=O)NC1=O)C(=O)N[C@@H](CC(=O)O)C(=O)N[C@@H](CO)C(=O)N[C@@H](CCCCN)C(=O)N[C@@H](CCCNC(=N)N)C(=O)N[C@@H](C)C(=O)N3)NC(=O)[C@H](CCCNC(=N)N)NC(=O)[C@H](CC(C)C)NC(=O)CNC(=O)[C@H](CCC(=O)O)NC2=O [compound 859]
- IC50 (hNav1.7): 0.489 nM
- IC50 (hNav1.4): 177 nM
- Nav1.4/Nav1.7 (hNav1.4): 361

Structure (SMILES): C#CC[C@H](N)C(=O)N[C@@H](Cc1ccc(O)cc1)C(=O)N[C@H]1CSSC[C@@H]2NC(=O)[C@@H]3CSSC[C@@H](C(=O)N[C@@H](CCCNC(=N)N)C(=O)N[C@@H](CCCCN)C(=O)N[C@@H](CCC(=O)O)C(=O)N[C@H](C(N)=O)[C@@H](C)CC)NC(=O)[C@H](Cc4c[nH]c5ccccc45)NC(=O)[C@H](CCCC)NC(=O)[C@H](CCCCN)NC(=O)[C@H](CSSC[C@H](NC(=O)[C@H]([C@@H](C)O)NC(=O)[C@H](Cc4c[nH]c5ccccc45)NC(=O)[C@H](CCCC)NC(=O)[C@H](Cc4c[nH]c5ccccc45)NC(=O)[C@H](CCCCN)NC(=O)[C@H](CCC(N)=O)NC1=O)C(=O)N[C@@H](CC(=O)O)C(=O)N[C@@H](CO)C(=O)N[C@@H](CCCCN)C(=O)N[C@@H](CCCNC(=N)N)C(=O)N[C@@H](C)C(=O)N3)NC(=O)[C@H](CCCNC(=N)N)NC(=O)[C@H](CC(C)C)NC(=O)CNC(=O)[C@H](CCC(=O)O)NC2=O [compound 856]
- IC50 (hNav1.7): 1.72 nM
- IC50 (hNav1.4): 102 nM
- Nav1.4/Nav1.7 (hNav1.4): 59

Structure (SMILES): C#CC[C@H](N)C(=O)N[C@@H](Cc1ccc(O)cc1)C(=O)N[C@H]1CSSC[C@@H]2NC(=O)[C@@H]3CSSC[C@@H](C(=O)N[C@@H](CCCNC(=N)N)C(=O)N[C@@H](CCCCN)C(=O)N[C@@H](CCC(=O)O)C(=O)N[C@@H](Cc4c[nH]c5ccccc45)C(N)=O)NC(=O)[C@H](Cc4c[nH]c5ccccc45)NC(=O)[C@H](CC(C)C)NC(=O)[C@H](CCCCN)NC(=O)[C@H](CSSC[C@H](NC(=O)[C@H]([C@@H](C)O)NC(=O)[C@H](Cc4c[nH]c5ccccc45)NC(=O)[C@H](CCCC)NC(=O)[C@H](Cc4c[nH]c5ccccc45)NC(=O)[C@H](CCCCN)NC(=O)[C@H](CCC(N)=O)NC1=O)C(=O)N[C@@H](CC(=O)O)C(=O)N[C@@H](CO)C(=O)N[C@@H](CCCCN)C(=O)N[C@@H](CCCNC(=N)N)C(=O)N[C@@H](C)C(=O)N3)NC(=O)[C@H](CCCNC(=N)N)NC(=O)[C@H](CC(C)C)NC(=O)CNC(=O)[C@H](CCC(=O)O)NC2=O [compound 450]
- IC50 (hNav1.7): 0.782 nM
- IC50 (hNav1.4): 36.7 nM
- Nav1.4/Nav1.7 (hNav1.4): 47

Structure (SMILES): C#CC[C@H](N)C(=O)N[C@H]1CSSC[C@@H]2NC(=O)[C@@H]3CSSC[C@@H](C(=O)N[C@@H](CCCNC(=N)N)C(=O)N[C@@H](CCCCN)C(=O)N[C@@H](CCC(=O)O)C(=O)N[C@H](C(N)=O)[C@@H](C)CC)NC(=O)[C@H](Cc4c[nH]c5ccccc45)NC(=O)[C@H](CC(C)C)NC(=O)[C@H](CCCCN)NC(=O)[C@H](CSSC[C@H](NC(=O)[C@H]([C@@H](C)O)NC(=O)[C@H](Cc4c[nH]c5ccccc45)NC(=O)[C@H](CCCC)NC(=O)[C@H](Cc4c[nH]c5ccccc45)NC(=O)[C@H](CCCCN)NC(=O)[C@H](CCC(N)=O)NC1=O)C(=O)N[C@@H](CC(=O)O)C(=O)N[C@@H](CO)C(=O)N[C@@H](CCCCN)C(=O)N[C@@H](CCCNC(=N)N)C(=O)N[C@@H](C)C(=O)N3)NC(=O)[C@H](C(C)C)NC(=O)[C@H](CC(C)C)NC(=O)CNC(=O)[C@H](CCC(=O)O)NC2=O [compound 1688]
- IC50 (hNav1.7): 3.99 nM
- IC50 (hNav1.4): 1120 nM
- Nav1.4/Nav1.7 (hNav1.4): 280

Structure (SMILES): C#CC[C@@H]1NC(=O)[C@@H]2CSSC[C@H](NC(=O)[C@H](CCC(=O)O)NC(=O)[C@@H](N)CC#N)C(=O)N[C@@H](CCC(N)=O)C(=O)N[C@@H](CCCCN)C(=O)N[C@@H](Cc3c[nH]c4ccccc34)C(=O)N[C@@H](CCCC)C(=O)N[C@@H](Cc3c[nH]c4ccccc34)C(=O)N[C@@H]([C@@H](C)O)C(=O)N[C@H]3CSSC[C@H](NC(=O)[C@H](CCCNC(=N)N)NC(=O)[C@H](CC(C)C)NC(=O)CNC1=O)C(=O)N[C@@H](CCCCN)C(=O)N[C@@H](CC(C)C)C(=O)N[C@@H](Cc1c[nH]c4ccccc14)C(=O)N[C@H](C(=O)N[C@@H](CCCNC(=N)N)C(=O)N[C@@H](CCCCN)C(=O)N[C@@H](CCC(=O)O)C(=O)N[C@@H](CC1CCCCC1)C(N)=O)CSSC[C@H](NC(=O)[C@H](C)NC(=O)[C@H](CCCNC(=N)N)NC(=O)[C@H](CCCCN)NC(=O)[C@H](CO)NC(=O)[C@H](CC(=O)O)NC3=O)C(=O)N2 [compound 866]
- IC50 (hNav1.7): 0.321 nM
- IC50 (hNav1.4): 37.6 nM
- Nav1.4/Nav1.7 (hNav1.4): 117

Structure (SMILES): C#CC[C@@H]1NC(=O)[C@@H]2CSSC[C@H](NC(=O)[C@@H](N)CC#N)C(=O)N[C@@H](CCC(N)=O)C(=O)N[C@@H](CCCCN)C(=O)N[C@@H](Cc3c[nH]c4ccccc34)C(=O)N[C@@H](CCCC)C(=O)N[C@@H](Cc3c[nH]c4ccccc34)C(=O)N[C@@H]([C@@H](C)O)C(=O)N[C@H]3CSSC[C@H](NC(=O)[C@H](CCCNC(=N)N)NC(=O)[C@H](CC(C)C)NC(=O)CNC1=O)C(=O)N[C@@H](CCCCN)C(=O)N[C@@H](CC(C)C)C(=O)N[C@@H](Cc1c[nH]c4ccccc14)C(=O)N[C@H](C(=O)N[C@@H](CCCNC(=N)N)C(=O)N[C@@H](CCCCN)C(=O)N[C@@H](CCC(=O)O)C(=O)N[C@H](C(N)=O)[C@@H](C)CC)CSSC[C@H](NC(=O)[C@H](C)NC(=O)[C@H](CCCNC(=N)N)NC(=O)[C@H](CCCCN)NC(=O)[C@H](CCC(=O)O)NC(=O)[C@H](CC(=O)O)NC3=O)C(=O)N2 [compound 1672]
- IC50 (hNav1.7): 2.87 nM
- IC50 (hNav1.4): 457 nM
- Nav1.4/Nav1.7 (hNav1.4): 159

Structure (SMILES): C#CC[C@H](N)C(=O)N[C@@H](Cc1ccc(O)cc1)C(=O)N[C@H]1CSSC[C@@H]2NC(=O)[C@@H]3CSSC[C@@H](C(=O)N[C@@H](CCCNC(=N)N)C(=O)N[C@@H](CCCCN)C(=O)N[C@@H](CCC(=O)O)C(=O)N[C@H](C(N)=O)[C@@H](C)CC)NC(=O)[C@H](Cc4c[nH]c5ccccc45)NC(=O)[C@H](CC4CCCCC4)NC(=O)[C@H](CCCCN)NC(=O)[C@H](CSSC[C@H](NC(=O)[C@H]([C@@H](C)O)NC(=O)[C@H](Cc4c[nH]c5ccccc45)NC(=O)[C@H](CCCC)NC(=O)[C@H](Cc4c[nH]c5ccccc45)NC(=O)[C@H](CCCCN)NC(=O)[C@H](CCC(N)=O)NC1=O)C(=O)N[C@@H](CC(=O)O)C(=O)N[C@@H](CO)C(=O)N[C@@H](CCCCN)C(=O)N[C@@H](CCCNC(=N)N)C(=O)N[C@@H](C)C(=O)N3)NC(=O)[C@H](CCCNC(=N)N)NC(=O)[C@H](CC(C)C)NC(=O)CNC(=O)[C@H](CCC(=O)O)NC2=O [compound 860]
- IC50 (hNav1.7): 1.61 nM
- IC50 (hNav1.4): 117 nM
- Nav1.4/Nav1.7 (hNav1.4): 73
